Experimental data as given in EP1285918A1, “C7 Ester substituted taxanes as antitumor agents” (Florida State University Research Foundation, Inc., priority 2001, dated 2003).
Like-named read-outs stand apart in the source and are kept apart here.

Assays:
[1] = test system: A375 Human Melanoma Xenografts; settings: A375; for MDS (n): 2.0 g cut-off; for Mean Score: tumor score 1 to 10, group mean; for survival extension compared to Group 1 controls: i.v. qd x 1 (mg/kg: Taxol 24, 1393 72.6, 1418 107.6, Taxotere 70)
Summary of the method: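 Female NCr-nude mice carrying subcutaneous flank A375 implants (1 mm^3), six per group (Taxotere seven). Single i.v. dose on Day 1 at each agent's estimated MTD (Taxotere 70 mg/kg), vehicle i.v. for controls; study ended Day 60. Survival days counted to 2.0 g tumor; complete response = non-palpable tumor at study end, partial = smaller than on Day 1.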

[2] = test system: Panc-1 Human Pancreatic Carcinoma Xenografts
Summary of the method: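 Female NCr-nude mice with subcutaneous flank Panc-1 fragments, six per group, dosed i.v. once on Day 1 at estimated MTD (Taxotere 70 mg/kg); vehicle controls. Survival taken as days until tumor reached 1.5 g; complete response = nonpalpable tumor at Day 63, partial = smaller than Day 1 size.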

[3] = test system: VM46 Human Colon Carcinoma Xenografts; settings: for Complete Response / Mean Score / Partial Response / Stable Disease / Survivors / Toxic Deaths / MDS (n): 6 mice/group; for MDS (n): days until tumor reached 1.5 g
Summary of the method: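 Female NCr-nude mice bearing subcutaneous VM46 colon carcinoma fragments, six per group, given compounds i.v. once on Day 1 at estimated MTD; vehicle i.v. for controls. Endpoints to Day 64: mean days of survival (tumor reaching 1.5 g), toxic deaths, survivors, complete/partial responses and stable disease.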

[4] = test system: DU 145 Human Prostate Carcinoma Xenografts; settings: DU145; for Mean Score: tumor score 1 to 10, group mean
Summary of the method: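 Male NCr-nude mice bearing subcutaneous DU145 fragments (five per group) received one i.v. dose at each agent's estimated MTD on Day 1, with vehicle controls; the study ran to Day 91. Survival was counted until tumour reached 1.5 g. Complete or partial response was scored by palpability or shrinkage below Day-1 size.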

[5] = i.v. qd x 1 (mg/kg: Taxol 24, 1351 107.6, 1393 72.6, 1401 107.6, 1418 107.6, 1424 195.1, Taxotere 70), Day 60
[6] = i.v. qd x 1 (mg/kg: Taxol 24, 1351 107.6, 1393 72.6, 1401 107.6, 1418 107.6, 1424 195.1, Taxotere 70)
[7] = i.v. qd x 1 at estimated MTD, 6 mice/group, study end Day 63
[8] = 107.6 mg/kg i.v. qd x 1, study end Day 64
[9] = i.v. qd x 1 (mg/kg: Taxol 24, 1351 107.6, 1393 72.6, 1401 107.6, 1418 107.6, 1424 195.1), 5 mice/group, Day 91
[10] = i.v. qd x 1 (mg/kg: Taxol 24, 1351 107.6, 1393 72.6, 1401 107.6, 1418 107.6, 1424 195.1)

Structure (SMILES)	MDS (n) [1, 5]	Complete Response [1, 5]	Partial Response [1, 5]	Survivors [1, 5]	Mean Score [1, 6]	Survivors [2, 7]	Toxic Deaths [2, 7]	mean group weight losses ([2]; mouse, in vivo, iv)	Complete Response [3, 8]	Mean Score [3, 8]	Partial Response [3, 8]	Stable Disease [3, 8]	Survivors [3, 8]	Toxic Deaths [3, 8]	MDS (n) [3, 8]	maximal mean group weight losses ([3]; mouse, in vivo, iv)	Complete Response [4, 9]	Partial Response [4, 9]	Stable Disease [4, 9]	Survivors [4, 9]	also measured
CCC(=O)O[C@H]1C[C@H]2OC[C@@]2(OC(C)=O)[C@H]2[C@H](OC(=O)c3ccccc3)[C@]3(O)C[C@H](OC(=O)[C@H](O)[C@@H](NC(=O)OC(C)(C)C)c4ccoc4)C(C)=C([C@@H](O)C(=O)[C@]12C)C3(C)C [Compound 1401]	22.2 ± 1.1 (6) days	0	0	0	2±0	6	0	3-13%	0	2.5 ± 1.3	1	0	1	1	46.1 ± 5.9 (4) days	under 12%	1	0	0	1	Stable Disease [1, 5]: 0; Toxic Deaths [1, 5]: 0; Toxic Deaths ([2]; Panc-1, i.v. qd x 1 (mg/kg: Taxol 24, 1351 75.32, 1393 72.6, 1401 107.6, 1418 107.6, 1424 195.1), 6 mice/group): no toxic deaths; Complete Response [2, 7]: 0; Mean Score [2, 7]: 6.8 ± 0.8; Partial Response [2, 7]: 3; Stable Disease [2, 7]: 3; tolerability ([2]; mouse, in vivo, iv): well-tolerated; Toxic Deaths ([3]; VM46, i.v. qd x 1 at estimated MTD): not more than one; tolerability ([3]; mouse, in vivo, iv): Acceptable toxicity; MDS (n) ([4]; i.v. qd x 1 (mg/kg: Taxol 24, 1351 107.6, 1393 72.6, 1401 107.6, 1418 107.6, 1424 195.1), 5 mice/group, 1.5 g cut-off, Day 91): 72.6 ± 8.7 (3) days; Toxic Deaths [4, 9]: 1; Mean Score [4, 10]: 3.6 ± 1.7
CCC(=O)OC1CC2OCC2(OC(C)=O)C2C(OC(=O)c3ccccc3)C3(O)CC(OC(=O)C(O)C(NC(=O)OC(C)(C)C)c4ccco4)C(C)=C(C(O)C(=O)C12C)C3(C)C (stereo not shown) [Compound 1393, 3'-Desphenyl-3'-(2-furyl)-7-propionyl taxotere]				0		6														4	survival extension compared to Group 1 controls [1]: 250%; Survivors ([3]; 72.6 mg/kg i.v. qd x 1, study end Day 64): 1
CCC(=O)O[C@H]1C[C@H]2OC[C@@]2(OC(C)=O)[C@H]2[C@H](OC(=O)c3ccccc3)[C@]3(O)C[C@H](OC(=O)[C@H](O)[C@@H](NC(=O)OC(C)(C)C)c4cccs4)C(C)=C([C@@H](O)C(=O)[C@]12C)C3(C)C [Compound 1418]	34.5 ± 3.1 (3) days	0	1	2	4 ± 1.3	6	0	3-13%	0	3.5 ± 0.8	0	3	3	0	41.7 ± 3.4 (3) days	3-14%	1	2	1	4	survival extension compared to Group 1 controls [1]: 140%; Partial Responses ([2]; Panc-1, i.v. qd x 1 (mg/kg: 1393 72.6, 1418 107.6), 6 mice/group, Day 63): 5; Complete Response ([2]; iv, 1512 h): 0; Mean Score ([2]; iv, 1512 h): 8 ± 0.6; Partial Response ([2]; iv, 1512 h): 5; Stable Disease ([2]; iv, 1512 h): 1; Toxic Deaths [4, 9]: 0; Mean Score [4, 10]: 7.2 ± 1.2; total response rate ([4]; i.v. qd x 1 at estimated MTD): ≥ 50%
